# From patent US20200038513A1, “MODULATORS OF FAK PROTEOLYSIS AND ASSOCIATED METHODS OF USE” (ARVINAS OPERATIONS, INC., priority 2018, published 2020)
# Test system: MDA-MB-231 cells
# Experiment: RPPA (reverse phase protein array)
# Type: cell-based, human
# Settings: 500nM
# Protocol: RPPA analysis was performed by MD Anderson Cancer Center RPPA core facility.
# Examination of the Molecular Signaling Events) and/or Downstream Pathways Responsible for the Migration and Invasion Effects Observed by Exemplary Compound Treatment. To pinpoint these observations to a molecular signaling event or specific downstream pathway, reverse phase protein array (RPPA) analysis was performed (Table 4).
compound,measurement,value
"Cc1ncsc1-c1ccc(CNC(=O)[C@@H]2C[C@@H](O)CN2C(=O)[C@@H](NC(=O)CCOCCOc2ccc(Nc3ncc(C(F)(F)F)c(NCc4cccc(N(C)S(C)(=O)=O)c4)n3)cc2)C(C)(C)C)cc1 [Compound 102, (2S,4R)-1-((S)-3,3-dimethyl-2-(3-(2-(4-((4-((3-(N-methylmethylsulfonamido)benzyl)amino)-5-(trifluoromethyl)pyrimidin-2-yl)amino)phenoxy)ethoxy)propanamido)butanoyl)-4-hydroxy-N-(4-(4-methylthiazol-5-yl)benzyl)pyrrolidine-2-carboxamide]","rel. Protein level, 4E-BP1",110.6%
same,"rel. Protein level, 4E-BP1_pS65",92.3%
same,"rel. Protein level, 14-3-3-beta",100.5%
same,"rel. Protein level, 14-3-3-zeta",105.4%
same,"rel. Protein level, 53BP1",111.3%
same,"rel. Protein level, A-Raf",106.5%
same,"rel. Protein level, ACC1",103.3%
same,"rel. Protein level, ACC_pS79",95.4%
same,"rel. Protein level, ADAR1",121.2%
same,"rel. Protein level, AMPK-a2_pS345",97.2%
same,"rel. Protein level, AMPKa",105.1%
same,"rel. Protein level, AMPKa_pT172",92.7%
same,"rel. Protein level, AR",85.0%
same,"rel. Protein level, ARID1A",121.1%
same,"rel. Protein level, ATM",106.8%
same,"rel. Protein level, ATM_pS1981",99.7%
same,"rel. Protein level, ATR_pS428",99.2%
same,"rel. Protein level, Akt",101.7%
same,"rel. Protein level, Akt_pS473",74.2%
same,"rel. Protein level, Akt_pT308",94.2%
same,"rel. Protein level, Annexin-I",117.8%
same,"rel. Protein level, Annexin-VII",110.0%
same,"rel. Protein level, Atg3",98.3%
same,"rel. Protein level, Atg7",100.8%
same,"rel. Protein level, Aurora-B",92.3%
same,"rel. Protein level, Axl",94.7%
same,"rel. Protein level, B7-H4",97.5%
same,"rel. Protein level, B-Raf",110.9%
same,"rel. Protein level, B-Raf_pS445",108.0%
same,"rel. Protein level, BAP1",96.8%
same,"rel. Protein level, BRD4",118.7%
same,"rel. Protein level, Bad_pS112",102.3%
same,"rel. Protein level, Bak",100.7%
same,"rel. Protein level, Bax",110.5%
same,"rel. Protein level, Bc1-xL",97.6%
same,"rel. Protein level, Bc12",92.8%
same,"rel. Protein level, Beclin_l",100.0%
same,"rel. Protein level, BiP-GRP78",103.0%
same,"rel. Protein level, Bid",102.8%
same,"rel. Protein level, Bim",102.9%
same,"rel. Protein level, C-Raf",100.8%
same,"rel. Protein level, C-Raf_pS338",90.7%
same,"rel. Protein level, CD4",101.8%
same,"rel. Protein level, CD20",92.3%
same,"rel. Protein level, CD29",104.7%
same,"rel. Protein level, CD31",98.2%
same,"rel. Protein level, CD44",106.6%
same,"rel. Protein level, CD45",97.9%
same,"rel. Protein level, CD49b",116.5%
same,"rel. Protein level, CD134",99.0%
same,"rel. Protein level, CDK1_pT14",94.6%
same,"rel. Protein level, COG3",107.9%
same,"rel. Protein level, Caspase-3",106.7%
same,"rel. Protein level, Caspase-7-cleaved-",113.1%
same,"rel. Protein level, Caspase-8",102.4%
same,"rel. Protein level, Caveolin-1",141.0%
same,"rel. Protein level, Chk2",94.4%
same,"rel. Protein level, Chk2_pT68",103.4%
same,"rel. Protein level, Chkl",92.3%
same,"rel. Protein level, Chkl_pS296",96.6%
same,"rel. Protein level, Claudin-7",101.6%
same,"rel. Protein level, Collagen-VI",93.4%
same,"rel. Protein level, Connexin-43",92.3%
same,"rel. Protein level, Cox2",171.3%
same,"rel. Protein level, Cox-IV",104.5%
same,"rel. Protein level, Creb",103.4%
same,"rel. Protein level, Cyclin-B1",96.7%
same,"rel. Protein level, Cyclin-D1",105.2%
same,"rel. Protein level, Cyclin-D3",94.7%
same,"rel. Protein level, Cyclin-E1",110.5%
same,"rel. Protein level, Cyclophilin-F",97.6%
same,"rel. Protein level, D-a-Tubulin",95.2%
same,"rel. Protein level, DJ1",103.5%
same,"rel. Protein level, DM-Histone-H3",108.5%
same,"rel. Protein level, DM-K9-Histone-H3",111.9%
same,"rel. Protein level, DUSP4",142.6%
same,"rel. Protein level, E2F1",98.2%
same,"rel. Protein level, E-Cadherin",92.7%
same,"rel. Protein level, EGFR",98.2%
same,"rel. Protein level, EGFR_pY1173",101.5%
same,"rel. Protein level, EMA",109.4%
same,"rel. Protein level, ENY2",95.1%
same,"rel. Protein level, ER",98.1%
same,"rel. Protein level, ER-a_pS118",109.9%
same,"rel. Protein level, ERCC1",93.6%
same,"rel. Protein level, ERCC5",103.3%
same,"rel. Protein level, Elk1_pS383",97.5%
same,"rel. Protein level, Ets-1",97.7%
same,"rel. Protein level, FAK",55.4%
same,"rel. Protein level, FAK_pY397",86.4%
same,"rel. Protein level, FASN",92.6%
same,"rel. Protein level, FOXM1",92.4%
same,"rel. Protein level, Fibronectin",103.9%
same,"rel. Protein level, FoxO3a",100.5%
same,"rel. Protein level, FoxO3a_pS318_S321",96.0%
same,"rel. Protein level, G6PD",97.7%
same,"rel. Protein level, GAPDH",99.4%
same,"rel. Protein level, GATA3",97.2%
same,"rel. Protein level, GATA-6",99.4%
same,"rel. Protein level, GCLM",99.9%
same,"rel. Protein level, GCN5L2",99.4%
same,"rel. Protein level, GSK-3a-b",107.2%
same,"rel. Protein level, GSK-3a-b_pS21_S9",97.0%
same,"rel. Protein level, Gab2",100.5%
same,"rel. Protein level, Glutamate-D1-2",95.5%
same,"rel. Protein level, Glutaminase",111.5%
same,"rel. Protein level, Granzyme-B",101.4%
same,"rel. Protein level, Gys",111.6%
same,"rel. Protein level, Gys_pS641",105.2%
same,"rel. Protein level, H2AX_pS140",117.7%
same,"rel. Protein level, HER2",106.9%
same,"rel. Protein level, HER2_pY1248",97.5%
same,"rel. Protein level, HER3",102.8%
same,"rel. Protein level, HER3_pY1289",96.9%
same,"rel. Protein level, HES1",92.3%
same,"rel. Protein level, HLA-DR-DP-DQ-DX",101.7%
same,"rel. Protein level, HSP27",96.5%
same,"rel. Protein level, HSP27_pS82",95.4%
same,"rel. Protein level, HSP70",105.2%
same,"rel. Protein level, Heregulin",113.3%
same,"rel. Protein level, Hexokinase-II",99.4%
same,"rel. Protein level, Hif-l-alpha",130.8%
same,"rel. Protein level, Histone-H3",131.4%
same,"rel. Protein level, IGF1R_pY1135_Y1136",97.2%
same,"rel. Protein level, IGFBP2",89.0%
same,"rel. Protein level, IGFRb",98.5%
same,"rel. Protein level, INPP4b",98.0%
same,"rel. Protein level, IR-b",111.4%
same,"rel. Protein level, IRF-1",111.6%
same,"rel. Protein level, IRS1",101.4%
same,"rel. Protein level, JNK2",103.8%
same,"rel. Protein level, JNK_pT183_Y185",98.5%
same,"rel. Protein level, Jagged1",111.0%
same,"rel. Protein level, Jak2",107.2%
same,"rel. Protein level, LC3A-B",106.5%
same,"rel. Protein level, LDHA",123.8%
same,"rel. Protein level, LRP6_pS1490",128.4%
same,"rel. Protein level, Lck",96.8%
same,"rel. Protein level, MAPK_pT202-Y204",93.7%
same,"rel. Protein level, MCT4",126.7%
same,"rel. Protein level, MDM2_pS166",94.8%
same,"rel. Protein level, MEK1",106.4%
same,"rel. Protein level, MEK1_p_S217-S221",95.0%
same,"rel. Protein level, MERIT40_pS29",92.3%
same,"rel. Protein level, MIF",107.4%
same,"rel. Protein level, MIG6",106.7%
same,"rel. Protein level, MMP2",103.9%
same,"rel. Protein level, MMP14-[EP1264Y]",137.5%
same,"rel. Protein level, MMP-14",120.9%
same,"rel. Protein level, MSH6",97.8%
same,"rel. Protein level, MSI2",93.5%
same,"rel. Protein level, Mcl-1",89.4%
same,"rel. Protein level, Merlin",94.1%
